Values of other authors in US20070275092A1, “Therapeutic composition supporting the immune system” (priority 2005, published 2007).

Settings: per day

[Zn] [zinc]
dosage well tolerated but with potential side effects such as anemia (attributable to copper deficiency): 200 mg
